# Test results from US8691855B2, “Compounds, isomer thereof, or pharmaceutically acceptable salts thereof as vanilloid receptor antagonist and pharmaceutical compositions containing the same” (Amorepacific Corporation, priority 2008, dated 2014).
# Target: T1, vanilloid receptor (Rattus norvegicus, UniProt O35433)
# T1 construct: DRG nerve cells from the primary culture of 2 days were equilibrated; endogenous in cells; host or cells: primary culture of dorsal root ganglion neurons from neonatal SD rats
# T1 sequence (O35433 whole entry): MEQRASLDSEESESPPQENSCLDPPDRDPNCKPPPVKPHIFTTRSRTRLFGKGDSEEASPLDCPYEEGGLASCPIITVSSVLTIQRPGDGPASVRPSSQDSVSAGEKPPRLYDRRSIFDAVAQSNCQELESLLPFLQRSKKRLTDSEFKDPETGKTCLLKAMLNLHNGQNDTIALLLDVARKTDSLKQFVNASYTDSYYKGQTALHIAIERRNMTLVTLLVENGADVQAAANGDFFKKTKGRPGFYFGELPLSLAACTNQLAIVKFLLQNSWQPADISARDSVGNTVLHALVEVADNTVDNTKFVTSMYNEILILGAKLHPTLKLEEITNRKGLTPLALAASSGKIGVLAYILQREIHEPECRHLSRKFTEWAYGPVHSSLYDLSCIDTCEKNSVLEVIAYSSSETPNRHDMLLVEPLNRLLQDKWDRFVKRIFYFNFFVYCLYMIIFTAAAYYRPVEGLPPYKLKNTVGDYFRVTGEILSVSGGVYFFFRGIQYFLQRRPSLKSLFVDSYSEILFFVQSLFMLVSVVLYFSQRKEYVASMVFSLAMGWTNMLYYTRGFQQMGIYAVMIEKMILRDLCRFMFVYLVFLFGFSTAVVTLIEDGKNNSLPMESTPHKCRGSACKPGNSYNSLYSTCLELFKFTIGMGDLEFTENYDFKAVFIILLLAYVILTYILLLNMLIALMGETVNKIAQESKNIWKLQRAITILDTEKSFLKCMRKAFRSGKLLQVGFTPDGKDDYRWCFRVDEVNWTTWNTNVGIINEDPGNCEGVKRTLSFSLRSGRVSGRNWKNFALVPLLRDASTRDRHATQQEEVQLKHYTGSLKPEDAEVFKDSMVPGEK
# Test: 45Ca influx test (antagonist calcium uptake test) in rat DRG neurons stimulated with capsaicin
# Type: cell-based
# Conditions: DRG neuron; @10 μM; neonatal SD rat DRG neurons; capsaicin 0.5 μM; read-out: Antagonist Calcium Uptake Test, percent inhibition of capsaicin response
# Description: 1) Separation of spinal dorsal root ganglia (DRG) in newborn rats and primary culture thereof
# Neonatal (2-3 clay old or younger than 2-3 day old) SD rats were put in ice for 5 minutes to anesthetize and disinfected with 70% ethanol. DRG of all part of spinal cord were dissected (Wood et al., 1988, J. Neurosci. 8, pp 3208-3220) and collected in DME/F12 medium to which 1.2 g/l sodium bicarbonate and 50 mg/l gentamycin were added. The DRG were incubated sequentially at 37° C. for 30 mins in 200 U/ml collagenase and 2.5 mg/ml trypsin, separately. The ganglia were washed twice with DME/F12 medium supplemented with 10% horse serum, triturated through a fire-polished Pasteur pipette, filtered through Nitex 80 membrane to obtain single cell suspension and the suspension was washed once more. This was subjected to centrifugation, then resuspended in cell culture medium at certain level of cell density. As the cell culture medium, DME/F12 medium supplemented with 10% horse serum was diluted with identical medium conditioned by C6 glioma cells 2 clays on a confluent monolayer (1:1), and NGF (Nerve Growth Factor) was added to adjust 200 ng/ml as final concentration. After the cells were grown 2 days in medium where cytosine arabinoside (Ara-C, 100 μM) was added to kill dividing nonneuronal cells, medium was changed to one without Ara-C. The resuspended cells were plated at a density of 1500-2000 neurons/well onto Terasaki plates previously coated with 10 μg/ml poly-D-ornithine.
# 2) ^45Ca Influx Experiments
# DRG nerve cells from the primary culture of 2 days were equilibrated by washing 4 times with HEPES (10 mM, pH 7.4)-buffered Ca^2+, Mg^2+-free HBSS (H-HBSS). The solution in each well was removed from the individual well. Medium containing the test compound plus capsaicin (final concentration 0.5 μM) and ^45Ca (final concentration 10 μCi/ml) in H-HBSS was added to each well and incubated at room temperature for 10 nuns. Terasaki plates were washed five times with H-HBSS and dried at room temperature. To each well, 0.3% SDS (10 μl) was added to elute ^45Ca. After the addition of scintillation cocktail of into each well, the amount of ^45Ca influx into neuron was measured by counting radioactivity. Antagonistic activities of test compounds against vanilloid receptor were calculated as percent of the inhibition of maximal response of capsaicin at a concentration of 0.5 μM.
row,inhibition at 10 µM,Compound
1,56%,"CC(C)c1cccc(Oc2ccc(C(=O)N[C@H](C)c3cc(F)c(NS(C)(=O)=O)c(F)c3)s2)c1 [Example 21, 5-(3-Isopropyl-phenoxy)-thiophene-2-carboxylic acid [1-(3,5-difluoro-4-methanesulfonylamino-phenyl)-ethyl]-amide]"

# Same assay, conditions: neonatal SD rat DRG neurons; capsaicin 0.5 μM; 45Ca
row,Compound,IC50
1,"C[C@@H](NC(=O)c1coc(Oc2ccc3c(c2)CCC3)n1)c1cc(F)c(NS(C)(=O)=O)c(F)c1 [Example 22, 2-(Indan-5-yloxy)-oxazole-4-carboxylic acid [1-(3,5-difluoro-4-methanesulfonylamino-phenyl)-ethyl]-amide]",1900 nM
2,"C[C@@H](NC(=O)c1coc(Oc2ccc3ncccc3c2)n1)c1cc(F)c(NS(C)(=O)=O)c(F)c1 [Example 23, 2-(Quinolin-6-yloxy)-oxazole-4-carboxylic acid [1-(3,5-difluoro-4-methanesulfonylamino-phenyl)-ethyl]-amide]",11900 nM
3,"C[C@@H](NC(=O)c1coc(Oc2cccc3cccnc23)n1)c1cc(F)c(NS(C)(=O)=O)c(F)c1 [Example 24, 2-(Quinolin-8-yloxy)-oxazole-4-carboxylic acid [1-(3,5-difluoro-4-methanesulfonylamino-phenyl)-ethyl]-amide]",> 10000 nM
4,"C[C@@H](NC(=O)c1coc(Oc2cc(C(F)(F)F)ccn2)n1)c1cc(F)c(NS(C)(=O)=O)c(F)c1 [Example 25, 2-(4-Trifluoromethyl-pyridin-2-yloxy)-oxazole-4-carboxylic acid [1-(3,5-difluoro-4-methanesulfonylamino-phenyl)-ethyl]-amide]",> 10000 nM
5,C[C@@H](NC(=O)c1coc(Oc2cccc(Cl)n2)n1)c1cc(F)c(NS(C)(=O)=O)c(F)c1 [Example 26],> 10000 nM
6,"C#Cc1cccc(Oc2nc(C(=O)N[C@H](C)c3cc(F)c(NS(C)(=O)=O)c(F)c3)co2)c1 [Example 27, 2-(3-Ethynyl-phenoxy)-oxazole-4-carboxylic acid [1-(3,5-difluoro-4-methanesulfonylamino-phenyl)-ethyl]-amide]",1600 nM
7,"CC(C)c1cccc(Oc2nc(C(=O)N[C@H](C)c3cc(F)c(NS(C)(=O)=O)c(F)c3)cs2)c1 [Example 31, 2-(3-Isopropyl-phenoxy)-thiazole-4-carboxylic acid [1-(3,5-difluoro-4-methanesulfonylamino-phenyl)-ethyl]-amide]",2000 nM
8,"CCCc1cc(C(F)(F)F)ccc1Oc1nc(C(=O)N[C@H](C)c2cc(F)c(NS(C)(=O)=O)c(F)c2)co1 [Example 33, 2-(2-Propyl-4-trifluoromethyl-phenoxy)-oxazole-4-carboxylic acid [1-(3,5-difluoro-4-methanesulfonylamino-phenyl)-ethyl]-amide]",4900 nM
9,"C[C@@H](NC(=O)c1coc(Oc2cc(C(F)(F)F)cc(C(F)(F)F)c2)n1)c1cc(F)c(NS(C)(=O)=O)c(F)c1 [Example 36, 2-(3,5-Bis-trifluoromethyl-phenoxy)-oxazole-4-carboxylic acid [1-(3,5-difluoro-4-methanesulfonylamino-phenyl)-ethyl]-amide]",1300 nM
10,"C[C@@H](NC(=O)c1coc(Nc2cccc(C(F)(F)F)c2)n1)c1cc(F)c(NS(C)(=O)=O)c(F)c1 [Example 44, 2-(3-Trifluoromethyl-phenylamino)-oxazole-4-carboxylic acid [1-(3,5-difluoro-4-methanesulfonylamino-phenyl)-ethyl]-amide]",5500 nM
11,"CC(C)Oc1cccc(Oc2nc(C(=O)N[C@H](C)c3cc(F)c(NS(C)(=O)=O)c(F)c3)co2)c1 [Example 48, 2-(3-Isopropoxy-phenoxy)-oxazole-4-carboxylic acid [1-(3,5-difluoro-4-methanesulfonylamino-phenyl)-ethyl]-amide]",1200 nM
12,"C[C@@H](NC(=O)c1coc(Oc2cccc(C3CCCC3)c2)n1)c1cc(F)c(NS(C)(=O)=O)c(F)c1 [Example 51, 2-(3-Cyclopentyl-phenoxy)-oxazole-4-carboxylic acid [1-(3,5-difluoro-4-methanesulfonylamino-phenyl)-ethyl]-amide]",1100 nM

# Now from value to compound:
row,IC50,Compound
1,1100 nM,"CC(C)c1cc(Oc2nc(C(=O)N[C@H](C)c3cc(F)c(NS(C)(=O)=O)c(F)c3)co2)cc(C(F)(F)F)c1 [Example 40, 2-(3-Isopropyl-5-trifluoromethyl-phenoxy)-oxazole-4-carboxylic acid [1-(3,5-difluoro-4-methanesulfonylamino-phenyl)-ethyl]-amide]"
2,1100 nM,"Cc1ccc(C2CCCCC2)c(Oc2nc(C(=O)N[C@H](C)c3cc(F)c(NS(C)(=O)=O)c(F)c3)co2)c1 [Example 50, 2-(2-Cyclohexyl-5-methyl-phenoxy)-oxazole-4-carboxylic acid [1-(3,5-difluoro-4-methanesulfonylamino-phenyl)-ethyl]-amide]"
3,960 nM,"C=C(C)c1cc(Oc2nc(C(=O)N[C@H](C)c3cc(F)c(NS(C)(=O)=O)c(F)c3)co2)cc(C(F)(F)F)c1 [Example 43, 2-(3-Isopropenyl-5-trifluoromethyl-phenoxy)-oxazole-4-carboxylic acid [1-(3,5-difluoro-4-methanesulfonylamino-phenyl)-ethyl]-amide]"
4,820 nM,"C=C1CCc2c(Oc3nc(C(=O)N[C@H](C)c4cc(F)c(NS(C)(=O)=O)c(F)c4)co3)cccc21 [Example 28, 2-(1-Methylene-indan-4-yloxy)-oxazole-4-carboxylic acid [1-(3,5-difluoro-4-methanesulfonylamino-phenyl)-ethyl]-amide]"
5,770 nM,"C[C@@H](NC(=O)c1coc(Oc2cccc(C(F)(F)F)c2Cl)n1)c1cc(F)c(NS(C)(=O)=O)c(F)c1 [Example 45, 2-(2-Chloro-3-trifluoromethyl-phenoxy)-oxazole-4-carboxylic acid [1-(3,5-difluoro-4-methanesulfonylamino-phenyl)-ethyl]-amide]"
6,620 nM,"Cc1ccc(C(C)C)cc1Oc1nc(C(=O)N[C@H](C)c2cc(F)c(NS(C)(=O)=O)c(F)c2)co1 [Example 47, 2-(5-Isopropyl-2-methyl-phenoxy)-oxazole-4-carboxylic acid [1-(3,5-difluoro-4-methanesulfonylamino-phenyl)-ethyl]-amide]"
7,610 nM,"C[C@@H](NC(=O)c1coc(N2CCCC3CCCCC32)n1)c1cc(F)c(NS(C)(=O)=O)c(F)c1 (some centres unmarked) [Example 19, 2-(Octahydro-quinolin-1-yl)-oxazole-4-carboxylic acid [1-(3,5-difluoro-4-methanesulfonylamino-phenyl)-ethyl]-amide]"
8,600 nM,"C[C@@H](NC(=O)c1coc(Oc2cccc3c2OC2(CCCC2)O3)n1)c1cc(F)c(NS(C)(=O)=O)c(F)c1 [Example 49, 2-(2,3-Dihydroxy-phenoxy)-oxazole-4-carboxylic acid [1-(3,5-difluoro-4-methanesulfonylamino-phenyl)-ethyl]-amide, cyclopentanone ketal]"
9,410 nM,"C=C1CCCc2c(Oc3nc(C(=O)N[C@H](C)c4cc(F)c(NS(C)(=O)=O)c(F)c4)co3)cccc21 [Example 37, 2-(5-Methylene-5,6,7,8-tetrahydro-naphthalen-1-yloxy)-oxazole-4-carboxylic acid [1-(3,5-difluoro-4-methanesulfonylamino-phenyl)-ethyl]-amide]"
10,400 nM,"CCC1CCc2c(Oc3nc(C(=O)N[C@H](C)c4cc(F)c(NS(C)(=O)=O)c(F)c4)co3)cccc21 (some centres unmarked) [Example 38, 2-(1-Ethyl-indan-4-yloxy)-oxazole-4-carboxylic acid [1-(3,5-difluoro-4-methanesulfonylamino-phenyl)-ethyl]-amide]"
11,290 nM,"CC1CCCc2c(Oc3nc(C(=O)N[C@H](C)c4cc(F)c(NS(C)(=O)=O)c(F)c4)co3)cccc21 (some centres unmarked) [Example 39, 2-(5-Methyl-5,6,7,8-tetrahydro-naphthalen-1-yloxy)-oxazole-4-carboxylic acid [1-(3,5-difluoro-4-methanesulfonylamino-phenyl)-ethyl]-amide]"
12,280 nM,"CCc1cccc(Oc2nc(C(=O)N[C@H](C)c3cc(F)c(NS(C)(=O)=O)c(F)c3)co2)c1 [Example 29, 2-(3-Ethyl-phenoxy)-oxazole-4-carboxylic acid [1-(3,5-difluoro-4-methanesulfonylamino-phenyl)-ethyl]-amide]"
13,190 nM,"CCCc1ccc(C(F)(F)F)cc1Oc1nc(C(=O)N[C@H](C)c2cc(F)c(NS(C)(=O)=O)c(F)c2)co1 [Example 41, 2-(2-Propyl-5-trifluoromethyl-phenoxy)-oxazole-4-carboxylic acid [1-(3,5-difluoro-4-methanesulfonylamino-phenyl)-ethyl]-amide]"
